Data set [1] relates to pepsin. Particulars: Roberts 2003; cited from earlier work.
For data set [2] the following is noted: cited from earlier work.
Data set [3] has as its system mouse model of laryngopharyngeal reflux (LPR). The data set is described as follows: in vivo mouse model of LPR (laryngeal wounding and pepsin instillation, H&E histology). Particulars: for laryngeal histology (H&E) / pepsin-mediated laryngeal injury: pepsin pH7 group; for laryngeal histology (H&E): solvent (saline/PBS pH7) group. From the text: An in vivo mouse model of direct application of pepsin, to mimic laryngeal exposure during LPR, and treatment with select HIV protease inhibitors by either gavage (oral systemic delivery) or aerosolized delivery (inhaled local delivery) was used. […] Each group contained 3 mice. Six-week-old female Jackson A/J mice (Jackson Laboratory, Bar Harbor, ME), weighed one day after arrival, then weekly, on Mondays thereafter.
Avertin was the preferred anesthetic for the brief application time needed as it has a rapid induction, produces a short surgical anesthesia, and has a rapid recovery. […] For this experiment, isoflurane inhalation was used. The isoflurane, self-scavenging machine, was operated at 3% isoflurane with 2.5 liters of air per minute (LPM). The induction chamber was charged for 3-5 minutes prior to the mice being anesthetized. Mice were placed in the induction chamber for 3-5 minutes prior to any wounding or administrations. Anesthesia records were kept according to IACUC policy.
Animals secured by a copper wire attached to the board from which the mice were suspended by their upper teeth. This caused the lower jaw to fall open naturally, exposing the larynx and permitting visualization with a Zeiss microscope at 6× magnification. […] Under direct visualization, the subglottis, glottis, and supraglottis regions were superficially scratched interiorly from distal to proximal as the needle was pulled out gently, making a mild abrasion. This procedure was performed twice, with one week between woundings.
To examine the effect pepsin at acid and nonacid pH, animals were treated for 2 weeks with laryngeal instillation of pepsin (20 μL at 0.3 mg/ml, pH 7.0 or pH 4.0) at 24, 48, and 72 h post wounding procedure. During weeks 3 and 4, animals were treated with laryngeal instillation for 3 days per week. Mice were sacrificed and samples collected on Friday of the fourth week.
The twelve mice in the aerosol groups were condition in the nose-only exposure chamber (Intox) on three separate days by exposure to dry air for 10 min. Beginning the Monday (day 1) of the next week, aerosols and gavages were performed on the mice Monday through Friday (5 exposures). The aerosols and gavages continued Monday-Friday for three more weeks, with the final week consisting of 4 total exposure days, Monday-Thursday, (19 total) with the mice sacrificed and tissues harvested on Friday. Each mouse received two woundings and 12 solvent or pepsin administrations. Wounding and intratracheal administrations were concurrent with the aerosol and gavage treatments. The first wounding was performed on day 2, followed by solvent or pepsin administrations on days 3, 4, and 5. The second wounding was performed on day 8, followed by solvent or pepsin administrations on days 9, 10, and 11. In weeks 3 and 4, mice received solvent or pepsin administrations on days 16, 17, and 18 and days 23, 24, and 25. Day 26 was sacrifice and tissue harvest.
A 10 mL suspension of drug in ethanol was placed in the baffle, such that the concentration would remain constant at the equilibrium solubility. Droplets of ethanol containing dissolve drug were generated by an ultrasonic atomizer (nominal frequency 1.7 MHz) entrained by air at a flow rate of 0.5 LPM with a custom-built glass baffle (University of Minnesota, Department of Chemistry Glass Shop). The aerosol cloud was then passed through a cylindrical drying column containing an annular ring of charcoal. The ethanol is removed and the emanating dry aerosol particles of pure drug were then directed into the exposure chamber.
The mass deposited on the filters in a fixed collection time was measured gravimetrically, and with the collection time, allowed calculation of the total output rate (mg/min). The aerosol concentration (mass/volume of air) was calculated by dividing the total output rate by the air flow rate (0.5 LPM).

Data set [4] can be described thus: preliminary 12-day toxicity study of aerosolized fosamprenavir. Particulars: 12-day exposure. It counts as in vivo, mice. On the procedure:
In the following Example, the inventors used a small-scale powder disperser (SSPD) to aerosolize Fosamprenavir powder, and monitored particle size distribution by an Optical Particle Sizer (OPS). The SSPD inhales the powder through a venturi aspirator, which is then sampled through OPS at 1 L/min of flow (FIG. 11).
A preliminary 12-day toxicity study was conducted in mice. […] This was the only animal affected, across 15 treated mice, so this is suspected to be unrelated to the fosamprenavir treatment.

For data set [5], the system named is 14 relevant biomarkers for inflammation and toxicity. The data set is described as follows: Luminex assay of bronchiolar lavage samples. It counts as in vivo, mice. Particulars: control versus lowest dose. From the text:
Bronchiolar lavage samples were collected from all mice and a Luminex assay was used to measure 14 relevant biomarkers for inflammation and toxicity.

The conditions of data set [6]: known clinical profile; cited from earlier work.
The conditions of data set [7]: cited from earlier work. The source holds these as a separate data set.

Square brackets hold non-standard residues; d marks the D form. Peptide text beside a SMILES is read from it. * marks the point of attachment. Sta = CC(C)C[C@H](N)[C@@H](O)CC(=O)O; Isovaleryl = CC(C)CC(=O)*

Here are results for two compounds from patent US12678453B2, “Aerosolized formulations of HIV protease inhibitors for the treatment of airway reflux” (The Medical College of Wisconsin, Inc., priority 2020, dated 2026).

Turning to `CC(C)CC(=O)N[C@H](C(=O)N[C@H](C(=O)N[C@@H](CC(C)C)[C@@H](O)CC(=O)N[C@@H](C)C(=O)N[C@@H](CC(C)C)[C@@H](O)CC(=O)O)C(C)C)C(C)C` [pepstatin] (Isovaleryl-VV[Sta]A[Sta]-OH), in data set [1], the affinity for pepsin entry is “subnanomolar”. Besides, the water solubility entry in data set [2] is reported as “poor water-solubility”.
`CC(C)CN(C[C@@H](OP(=O)(O)O)[C@H](Cc1ccccc1)NC(=O)O[C@H]1CCOC1)S(=O)(=O)c1ccc(N)cc1` [fosamprenavir, [(3 S)-oxolan-3-yl]N-[(2S,3R)-4-[(4-aminophenyl)sulfonyl-(2-methylpropyl)amino]-1-phenyl-3-phosphonooxybutan-2-yl]carbamate]: in data set [3] (aerosol), the “laryngeal histology (H&E) / pepsin-mediated laryngeal injury” value is “normal histology” and the “laryngeal histology (H&E)” value is “normal histology”. Besides, in data set [3] (gavage), the “laryngeal histology (H&E) / pepsin-mediated laryngeal injury” value was “normal histology” and the “laryngeal histology (H&E)” value is listed as “normal histology”. Further, the “pepsin-mediated laryngeal injury (multi-layered, reactive epithelia and cell apoptosis)” value in data set [3] (inhalation, 1 mg/kg/d) was “prevented pepsin mediated laryngeal injury”. In data set [4] (mice), the “pathology in nasal cavity, larynx, esophagus, trachea, lung, liver, and kidney tissues” value is “No pathology was observed”. Also, the heart pathology result in data set [4] (one of 15 treated mice, suspected to be unrelated to treatment) was “significant inflammation”. Further, in data set [5], the “IL-6 in bronchiolar lavage” value is “showed significance”. Besides, the “side effects / tolerability” value in data set [6] is recorded as “favorable tolerability profile”. In addition, the pharmacokinetics entry in data set [7] (in mice) was “excellent pharmacokinetics”. For the same compound, the oral bioavailability entry in data set [7] (prodrug compared with amprenavir) was “improved oral bioavailability”.
